The values below are quoted from earlier work in publication PMC4041784, “Stereoselective Property of 20(S)-Protopanaxadiol Ocotillol Type Epimers Affects Its Absorption and Also the Inhibition of P-Glycoprotein” (PLoS ONE, 2014).

The test system of data set [1] is peroxisome proliferator activated receptor-γ. Set-up: method as in PMID 22234331.
The subject of the next data set is human fecal microflora. Set-up: method as in PMID 11824558.
For data set [2] the following is noted: not told.
Details of data set [3]: method as in PMID 21258738, PMID 15734156.

Regarding 20(S)-Rg3, in data set [1], the “peroxisome proliferator activated receptor-γ activity relative to 20(R)-Rg3” value was 10 fold. For the same molecule, the “transformation amount into 20(S)-Rh2 or 20(S)-PPD relative to 20(R)-Rg3” value in the data set with human fecal microflora is recorded as 19 fold.

Turning to `CC(C)=CCC[C@@](C)(O)[C@H]1CC[C@]2(C)[C@@H]1[C@H](O)C[C@@H]1[C@@]3(C)CC[C@H](O[C@@H]4O[C@H](CO)[C@@H](O)[C@H](O)[C@H]4O)C(C)(C)[C@@H]3CC[C@]12C` [20(R)-Rh2], the permeability in data set [2] was 0.02 ×10⁻⁶ cm/s.

Take `CC(C)=CCCC(C)(O)C1CCC2C1C(O)CC1C2(C)CCC2C(C)(C)C(OC3OC(CO)C(O)C(O)C3O)CCC21C` [20(S)-Rh2]: in data set [2], the permeability is 0.3 ×10⁻⁶ cm/s; the “permeability difference between 20(R)-Rh2 and 20(S)-Rh2” value is recorded as 15 folds. Regarding `CC(C)=CCC[C@](C)(O)[C@H]1CC[C@]2(C)[C@@H]1[C@H](O)C[C@@H]1[C@@]3(C)CC[C@H](O[C@@H]4O[C@H](CO)[C@@H](O)[C@H](O)[C@H]4O[C@@H]4O[C@H](CO)[C@@H](O)[C@H](O)[C@H]4O)C(C)(C)[C@@H]3CC[C@]12C` [Rg3, Ginsenoside Rg3], the oral bioavailability entry in data set [3] was “less than 5%”.

On to `CC(C)=CCC[C@](C)(O)[C@H]1CC[C@]2(C)[C@@H]1[C@H](O)C[C@@H]1[C@@]3(C)CC[C@H](O[C@@H]4O[C@H](CO)[C@@H](O)[C@H](O)[C@H]4O)C(C)(C)[C@@H]3CC[C@]12C` [Rh2, ginsenoside Rh2], for which the oral bioavailability entry in data set [3] is on record as “less than 5%”.
